Key:
apyrase [1] = target: T1, apyrase (Solanum tuberosum, UniProt P80595)
Description: (§1) 1. Leuconostoc sp MD 110 was grown by streaking a bead onto de Man Rogosa Sharpe agar to revive bead for stock (place in 30° C. incubator overnight).
1.1. A loop was taken from this plate and transferred to 10 ml Tryptone Soya Broth and grown at 30° C. for exactly 40 hours.
Cells were washed twice in ice-cold Reverse Osmosis water in centrifuge (4500 rpm for 10 mins), resuspended in 10 ml cold Reverse Osmosis water and stored in the fridge.
(§2) 1.3. Cells for the experiment were prepared using a 100× dilution of this stock with a sterile solution of glucose (10 g/l) and MgCl2 (5 mM) at room temperature. Cells were diluted into this solution at least 20 minutes prior to starting each experiment to allow adaptation to the new conditions.
A special luciferase/luciferin reagent formulated with a detergent-resistant luciferase (Promega, Ultraglo) enzyme was prepared. This was reconstituted in 17.5 ml of 30 mM phosphate /10 g/l a solution of long chain fatty acid ethoxylates.
(§3) 2. 1 ml of the above cell suspension was added to a cuvette.
3. The suspension was then treated with 1 ml of reconstituted apyrase 0.96 units per ml, and 10 μl of ATP (10^−7M) was added and left for 15 minutes at room temperature.
(§4) 4. Two 100 μl aliquots of the treated suspension was transferred to clean cuvettes.
5. To these two cuvettes 100 μl of the luciferase/luciferin reagent formulated with a detergent-resistant luciferase (Promega, Ultraglo) Ultraglo/phosphate/solution of long chain fatty acid ethoxylates was added.
(§5) 6. After 5 minutes extraction time Cuvette 1 was read in a luminometer.
(§6) 7. Cuvette 1 was removed from the luminometer and 10 μl of 10^−7M ATP was added to standardise.
(§7) 8. The sample was returned to the luminometer and read again, then read 5 consecutive times in a row in order to determine the final kinetics of the reaction.
(§8) 9. After a further five minutes the second water cuvette was read in a luminometer.
(§9) 10. Steps 7-11 were repeated for cuvette 2.
11. For the control, steps 4 to 13 were repeated but using a luciferase/luciferin reagent formulated with a detergent-resistant luciferase (Promega, Ultraglo) made by reconstituting in 25 mM HEPES buffer pH 7.75 with a solution of long chain fatty acid ethoxylates (10 g/l).

apyrase [2] = target: T1, apyrase; remark: listed apart in the source
Description: as §1
a. A loop was taken from this plate and transferred to 10 ml Tryptone Soya Broth and grown at 30° C. for exactly 40 hours.
as §2, with “b. […] Cells were washed twice in ice-cold Reverse Osmosis water in centrifuge (4500 rpm for 10 mins), resuspended in 10 ml cold Reverse Osmosis water and stored in the fridge. c.” for “1.3.”
d. A luciferase/luciferin reagent formulated with a detergent-resistant luciferase (Promega, Ultraglo) (Liquid Lysate) enzyme was reconstituted in 17.5 ml phosphate buffer pH 7.75.
as §3
3. The suspension was then treated with 1 ml of reconstituted apyrase 0.96 units per ml, and […] of ATP (10^−7M) was added and left for 15 minutes at room temperature.
as §4
5. 100 μl of the luciferase/luciferin reagent formulated with a detergent-resistant luciferase (Promega, Ultraglo)/phosphate luciferase was added to each of the cuvettes.
6. To the remaining 2 cuvettes 100 μl of a solution of long chain fatty acid ethoxylates (the extractant) was added and a timer started.
7. Cuvette 1 was read in a luminometer after 5 minutes extraction time.
8. Cuvette 1 was removed from the luminometer and 10 μl of 10^−7M ATP was added to standardise.
9. The sample was returned to the luminometer and read again, then read 5 consecutive times in a row in order to determine the final kinetics of the reaction.
10. After a further five minutes steps 9-11 were repeated for cuvette 2.
11. For the control steps 4 to 13 were repeated but using a luciferase/luciferin reagent formulated with a detergent-resistant luciferase (Promega, Ultraglo) reconstituted in 25 mM HEPES buffer pH 7.75.

apyrase [3] = target: T1, apyrase; remark: listed apart in the source
Description: as §1
1.1 A loop was taken from this plate and transferred to 10 ml Tryptone Soya Broth and grown at 30° C. for exactly 40 hours.
Cells were washed twice in ice-cold RO water in centrifuge (4500 rpm for 10 mins), resuspended in 10 ml cold Reverse Osmosis water and stored in the fridge.
as §2
1 ml of the above cell suspension was added to a cuvette.
2. The suspension was then treated with 1 ml of reconstituted apyrase 0.96 units per ml, and 10 μl of ATP (10^−7M) was added and left for 15 minutes at room temperature.
3. 2×100 μl aliquots of the treated suspension were added to clean cuvettes.
4. To these 2 cuvettes 20 μl of 100 μM pH 7.75 phosphate solution was added.
5. 100 μl of the extractant (a solution of long chain fatty acid ethoxylates) was added and a timer started.
as §5, §6, §7, §8, §9
11. For the control, steps 4 to 13 were repeated but using 20 μl of Reverse Osmosis water in place of 20 μl phosphate.

apyrase [4] = target: T1, apyrase; remark: listed apart in the source
Description: A loop was taken from this plate and transferred to 10 ml Tryptone Soya Broth and grown at 30° C. for exactly 40 hours.
1.3. […] Cells were washed twice in ice-cold Reverse Osmosis water in centrifuge (4500 rpm for 10 mins), resuspended in 10 ml cold Reverse Osmosis water and stored in the fridge.
Cells for the experiment were prepared using a 100× dilution of this stock with a sterile solution of glucose (10 g/l) and MgCl2 (5 mM) at room temperature. Cells were diluted into this solution at least 20 minutes prior to starting each experiment to allow adaptation to the new conditions.
as §3

T1 sequence (P80595 whole entry, species assumed): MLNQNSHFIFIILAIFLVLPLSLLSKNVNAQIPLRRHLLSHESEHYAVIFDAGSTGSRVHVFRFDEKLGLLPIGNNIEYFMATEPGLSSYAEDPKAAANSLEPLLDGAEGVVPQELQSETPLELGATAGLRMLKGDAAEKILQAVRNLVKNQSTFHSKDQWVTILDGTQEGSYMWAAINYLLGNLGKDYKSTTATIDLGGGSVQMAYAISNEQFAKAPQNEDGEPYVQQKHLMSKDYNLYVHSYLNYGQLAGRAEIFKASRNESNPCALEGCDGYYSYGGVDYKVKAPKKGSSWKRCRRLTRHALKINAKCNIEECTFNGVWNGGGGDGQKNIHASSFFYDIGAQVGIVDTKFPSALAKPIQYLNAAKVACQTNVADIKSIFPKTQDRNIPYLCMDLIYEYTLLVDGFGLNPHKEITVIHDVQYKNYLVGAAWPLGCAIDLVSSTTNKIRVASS

phosphate
amount of ATP per assay higher at T=10 than at T=5 (apyrase [1]; 30 mM phosphate in luciferase/extractant reagent): 42% | amount of ATP per assay at T=5 (apyrase [1]; 30 mM phosphate in luciferase/extractant reagent, T=5): 0.0052 picomoles | amount of ATP per assay at T=10 (apyrase [1]; 30 mM phosphate in luciferase/extractant reagent, T=10): 0.0074 picomoles | increase of RLU values (kinetics) (apyrase [1]; in 75 seconds, 30 mM phosphate in luciferase/extractant reagent): 13% | RLU signal higher at T=10 than at T=5 (apyrase [1]; luciferase reagent in 30 mM phosphate / 10 g/l long chain fatty acid ethoxylates): 57% | drop of assay signal (kinetics, FIG. 2.3) (apyrase [2]; in 50 seconds after ATP standard, phosphate buffer pH 7.75): 10% | RLU produced after 5 minutes extraction still remaining at T=10 minutes (apyrase [2]; luciferase reagent reconstituted in phosphate buffer pH 7.75): 73.7% | amount of ATP at T=10 as percentage of that present at T=5 (apyrase [2]; phosphate buffer pH 7.75): 81.3% | amount of ATP at T=5 (apyrase [2]; phosphate buffer pH 7.75, T=5 minutes): 0.035 picomoles | amount of ATP remaining at T=10 (apyrase [2]; phosphate buffer pH 7.75, T=10 minutes): 0.029 picomoles | inhibition of apyrase, ATP broken down in 5 minutes (FIG. 4.2) (apyrase [3]; 20 μl of 100 μM pH 7.75 phosphate solution): does inhibit apyrase | RLU produced after 5 minutes extraction remaining 5 minutes later (apyrase [3]; 20 μl of 100 μM pH 7.75 phosphate solution added before extractant): 100% | level of ATP present in the assay, T-5 to T-10 (apyrase [3]; 20 μl of 100 μM pH 7.75 phosphate solution, patent believes it an artifact of the calculation): increased | drop of RLU values (kinetics) (apyrase [3]; in 46 seconds, 20 μl of 100 μM pH 7.75 phosphate solution): around 1,400 RLU | rise in RLU from T-5 to T-10 (apyrase [4]; 30 mM phosphate mixed with the extractant, after 15 min apyrase 0.96 units per ml, Leuconostoc sp MD 110 suspension): 38% | inhibition of apyrase (kinetics, FIG. 1.3) (apyrase [4]; 30 mM phosphate, ATP standard added, consecutive luminometer reads): inhibits the action of apyrase
